The results in this text go back to ChEMBL document CHEMBL1833800, “Synthesis, preliminary biological evaluation and molecular modeling of some new heterocyclic inhibitors of TACE” (Eur J Med Chem, 2011).

pIC50: −log10 of the molar value.

Sequence of Disintegrin and metalloproteinase domain-containing protein 17 (P78536 whole entry, the tested form may be a part): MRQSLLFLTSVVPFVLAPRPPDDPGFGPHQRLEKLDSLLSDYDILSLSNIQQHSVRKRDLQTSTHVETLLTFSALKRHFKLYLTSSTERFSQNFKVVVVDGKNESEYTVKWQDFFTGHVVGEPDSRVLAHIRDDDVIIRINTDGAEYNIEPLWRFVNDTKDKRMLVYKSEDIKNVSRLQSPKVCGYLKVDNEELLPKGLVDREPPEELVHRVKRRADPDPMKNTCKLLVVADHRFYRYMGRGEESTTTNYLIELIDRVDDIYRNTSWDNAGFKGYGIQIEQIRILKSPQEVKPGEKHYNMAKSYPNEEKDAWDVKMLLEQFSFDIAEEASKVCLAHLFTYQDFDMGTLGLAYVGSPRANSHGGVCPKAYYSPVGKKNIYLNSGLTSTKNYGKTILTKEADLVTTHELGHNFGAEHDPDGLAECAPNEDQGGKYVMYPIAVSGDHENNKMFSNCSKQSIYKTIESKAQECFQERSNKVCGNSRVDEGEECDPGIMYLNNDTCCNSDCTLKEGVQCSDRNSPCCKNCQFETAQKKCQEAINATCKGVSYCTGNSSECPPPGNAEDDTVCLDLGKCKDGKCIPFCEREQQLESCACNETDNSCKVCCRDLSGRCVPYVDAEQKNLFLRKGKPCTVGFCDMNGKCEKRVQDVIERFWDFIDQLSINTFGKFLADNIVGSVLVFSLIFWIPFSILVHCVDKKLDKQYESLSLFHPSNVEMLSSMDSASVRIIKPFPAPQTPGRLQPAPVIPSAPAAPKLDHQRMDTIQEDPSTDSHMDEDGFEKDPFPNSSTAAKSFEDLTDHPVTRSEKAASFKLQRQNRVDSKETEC

This experiment addresses Disintegrin and metalloproteinase domain-containing protein 17 (Homo sapiens, UniProt P78536). Nature of the experiment: Inhibition of TACE in human whole blood assessed as reduction of LPS-induced TNFalpha production pretreated 15 mins before LPS challenge measured 5 hrs post LPS challenge.
As to `O=C(N[C@@H]1CCOC[C@@H]1C(=O)NO)c1ccc(Cn2c(C(F)(F)F)nc3ccccc32)nc1`, the pIC50 (in general, the negative decadic logarithm of the IC50, by convention in mol/L) was 6.80. On to `O=C(N[C@@H]1CCC[C@@H]1C(=O)NO)c1ccc(Cn2c(C(F)(F)F)nc3ccccc32)nc1` (single isomer, unassigned), for which the negative-log IC50 (pIC50) is 7.13. `O=C(N[C@@H]1CCCC[C@@H]1C(=O)NO)c1ccc(Cn2c(C(F)(F)F)nc3ccccc32)nc1`: the negative logarithm of the IC50 (pIC50) is 6.55.

`Cc1nc2ccccc2n1Cc1ccc(C(=O)N[C@@H]2CCOC[C@@H]2C(=O)NO)cn1`: the pIC50 was 7.10. The value for `Cc1nc2ccccc2n1Cc1ccc(C(=O)N[C@@H]2CCC[C@@H]2C(=O)NO)cn1` (single isomer, unassigned) was 7.15; that for `Cc1nc2ccccc2n1Cc1ccc(C(=O)N[C@@H]2CCCC[C@@H]2C(=O)NO)cn1` was 6.90.
